Measurements reported in patent US20260207626A1, “SYNTHETIC TRITERPENOIDS AND COMPOSITIONS THEREOF IN WEIGHT MANAGEMENT, SKELETAL MUSCLE FUNCTION, AND APPETITE SUPPRESSION” (The Board of Regents of the University of Texas System, priority 2022, published 2026).
“Also recorded” adds a separate entry of the source.

What was measured:
MCP-1 = experiment: Quantitative RT-PCR of LPS-induced MCP-1 mRNA in L6-GLUT4myc myotubes; type: cell-based, rat; conditions: 500 nM CDDO-EA 1 hr then 100 ng/ml LPS 1 hr
Experimental: Quantitative RT-PCR: L6-GLUT4myc myoblasts (4×10^4 cell/ml, 2 ml/well) were seeded on a 6-well plate and differentiated into myo-tubes with differentiation medium for 7 days. Myotubes were pre-treated with CDDO-EA 500 nM for 1 h followed by LPS 100 ng/ml (E. coli O111: B4, Sigma Aldrich) treatment for 1 h. RNA was isolated from treated myotubes using TRIzol reagent (Ambion) according to the manufacturer's instructions. Validated RT-PCR primers specific for rat TNF-α (Assay ID: Rn99999017_m1) and rat MCP-1 (Assay ID: Rn00580555_m1), or rat GAPDH (Assay ID: Rn99999916_s1) were used to quantify mRNA levels using TaqMan RNA-to-CT 1-Step Kit (Thermo Fisher Scientific), Real-time PCR was carried out using an AB7900HT Fast Real-Time PCR System (Applied Biosystems), and MCP-1 and TNF-α levels were calculated using the ΔΔCT method according to the manufacturer's instructions.

[1] = Serum glucose and insulin, oral glucose tolerance test (OGTT) in mice fed LFD or HFD with or without CDDO-EA; type: in vivo, C57B16/J mice
Experimental: Data were statistically analyzed by One-Way ANOVA, Two-Way ANOVA with repeated measures, or Two-Way ANOVA with Tukey's multiple comparison test. Throughout the collection of blood samples, OGTTs, and measurement of bodyweight, mice were unrestrained and awake. Blood samples were collected via tail snip before start of experimental feeding and then every two weeks. Oral glucose tolerance tests (OGTTs) were performed after the six-week experimental feeding, and blood samples were collected via tail snip during the OGTT. For OGTT, mice were given 2 g of glucose/kg of body weight by gavage after a five hour fast (36). Glucose levels were measured using a glucometer (Contour), and insulin concentrations were measured using an ELISA (Mercodia). Mice were weighed once a week. Glucose and insulin serum levels were measured every two weeks.
Glucose and insulin levels were measured in the subject animals to determine if prevention of obesity by CDDO-EA in a high fat diet (HFD) chow regimen and in a low fat diet (LFD) regimen coincided with a reduction in hyperglycemia and hyperinsulinemia.

TNF-α = experiment: RT-PCR of PA-induced TNF-α gene expression in L6-GLUT4myc myotubes; type: cell-based, rat; conditions: CDDO-EA 500 nM 1 h then PA 400 μM 6 h
Experimental: L6-GLUT4myc myotubes were pretreated with CDDO-EA (500 nM, 1 h) and treated PA (400 μM, 6 h). TNF-α and MCP-1 gene expression were measured by RT-PCR. Data are represented as +SEM *P<0.05 vs. control, ^#P<0.05 vs. control. * P<0.05 vs. LPS, $P<0.05 vs. PA. (One-Way ANOVA).

NF-κB p65 (Ser536) = experiment: Western blot of LPS-induced NF-κB phosphorylation in L6-GLUT4myc myotubes; type: cell-based, rat; conditions: 500 nM CDDO-EA 1 hr then 100 ng/ml LPS 1 hr
Excerpt: To examine the anti-inflammatory properties of CDDO-EA in skeletal muscle cells, CDDO-EA was examined for its effect on nuclear factor-kappa B (NF-κB) activity in L6-GLUT4myc muscle cells, in the context of LPS-mediated inflammatory responses in L6-GLUT4myc muscle cells. All experiments were independently repeated one to four times and done in duplicate or triplicate, and data were statistically analyzed by One-Way ANOVA or unpaired t-test, two tailed.
Cells were studied with vehicle alone [0.125% dimethyl sulfoxide (DMSO)] and LPS with and without CDDO-EA. […]
Western blotting and subcellular fractionation: L6-GLUT4myc myoblasts (4×10^4 cells/ml, 2 ml/well) were seeded onto 6-well dishes and differentiated with differentiation medium for 7 days. […] Protein concentrations were determined using the Pierce BCA Protein Assay (Thermo Fisher Scientific), and equal amounts of protein were separated by electrophoresis and subsequently transferred to nitrocellulose membranes. Membranes were analyzed using the following antibodies from Cell Signaling Technology: phosphorylated NF-κB (Ser536) (93 H1, cat #3033,1:1000), phosphorylated IKB-α (Ser32) (14D4, cat #2859,1:1000), IKB-α (44D4, cat #4812, 1:1000), phosphorylated p38 (Thr180/Tyr182) (cat #9211, 1:1000), p38 (cat #9212, 1:1000). […] Bands were quantitated using ImageQuant (GE Healthcare). […]

SMILES: CCNC(=O)[C@]12CCC(C)(C)C[C@H]1C1C(=O)C=C3[C@@]4(C)C=C(C#N)C(=O)C(C)(C)[C@@H]4CC[C@@]3(C)[C@]1(C)CC2 (stereo partly drawn) [CDDO-EA, (4aS,6aR,6bS,8aR,12aS,14bS)-11-cyano-N-ethyl-2,2,6a,6b,9,9,12a-heptamethyl-10,14-dioxo-1,3,4,5,6,6a,6b, 7,8,8a,9,10,12a, 14,14a, 14b-hexadecahydropicene-4a (2H)-carboxamide]
- LPS-induced MCP-1 mRNA expression (MCP-1): lowered LPS-induced mRNA levels of TNF-α and MCP-1; also recorded: blocked the mRNA expression of LPS-induced TNF-α and MCP-1; also recorded: reduced LPS-induced TNF-α and MCP-1 gene expression levels; also recorded: inhibits LPS-inducted TNF-α and MCP-1 gene expression
- OGTT serum glucose ([1]; HFD + CDDO-EA, after 6 weeks (FIG. 6B)): prevented increased serum glucose; also recorded: significantly decrease to glucose levels before the HFD experimental feeding; also recorded: prevents glucose intolerance
- OGTT serum insulin ([1]; HFD + CDDO-EA, after 6 weeks (FIG. 7B)): prevented increased serum glucose (FIG. 6B) and insulin concentrations; also recorded: insulin levels did not increase significantly; also recorded: prevents hyperinsulinemia
- serum glucose levels during feeding ([1]; HFD with CDDO-EA, weeks 0-6 (FIG. 13A)): did not increase throughout the six-week feeding; also recorded: prevents glucose intolerance
- serum insulin levels during feeding ([1]; HFD with CDDO-EA, weeks 0-6 (FIG. 13B)): remained significantly higher in mice fed only a HFD compared to mice fed a HFD with CDDO-EA; also recorded: prevents hyperinsulinemia
- serum glucose levels ([1]; LFD + CDDO-EA, after 6 weeks (FIG. 6A)): no significant increase or decrease in serum glucose levels; also recorded: did not affect glucose and insulin levels of mice fed LFD with CDDO-EA
- insulin levels ([1]; LFD + CDDO-EA, after 6 weeks (FIG. 7A)): overlap with the insulin levels before experimental feeding; also recorded: did not affect glucose and insulin levels of mice fed LFD with CDDO-EA
- PA-induced TNF-α gene expression (TNF-α): inhibits PA-induced NF-κB activation and MCP-1 and TNF-α gene expression; also recorded: blocks TNF-α and MCP-1 gene expression
- LPS-induced NF-κB phosphorylation (NF-κB p65 (Ser536)): decreased LPS-induced NF-κB and nuclear factor of kappa light polypeptide gene enhancer in B-cells inhibitor-alpha (IκB) phosphorylation; also recorded: inhibited LPS-induced NF-κB phosphorylation; also recorded: inhibits lipopolysaccharide (LPS)-induced NF-κB and Inhibitory kappa B alpha (IκB-α) phosphorylation
